Source: ChEMBL document CHEMBL1201862, “PubChem BioAssay data set” (2004)
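Step 1: Grow cells in 96-well plates. Step 2: Expose to compound for 48 hours at 5 concentrations. Step 3: Interpolate endpoints linearly; if unreached, use highest concentration. At the GI50, growth is halved.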 Calls of active or inactive are those of the source. No stated cut-off is given here; in the data, active = GI50 up to about 1.1 µM and inactive = higher.

What was measured:
Test in all cases: inhibition of tumour cell growth, NCI panel, 48 h
[1] = test system: CCRF-CEM
[2] = test system: COLO 205
[3] = test system: EKVX
[4] = test system: HL-60
[5] = test system: HOP-62
[6] = test system: IGROV-1
[7] = test system: KM12
[8] = test system: M14
[9] = test system: SK-MEL-28
[10] = test system: SK-MEL-5
[11] = test system: SK-OV-3
[12] = test system: T47D
[13] = test system: UO-31
[14] = test system: DU-145
[15] = test system: LOX IMVI
[16] = test system: NCI-H226
[17] = test system: OVCAR-3
[18] = test system: UACC-62

SMILES | GI50 [1] | GI50 [2] | GI50 [3] | GI50 [4] | GI50 [5] | GI50 [6] | GI50 [7] | GI50 [8] | GI50 [9] | GI50 [10] | GI50 [11] | GI50 [12] | GI50 [13] | GI50 [14] | GI50 [15] | GI50 [16] | GI50 [17] | GI50 [18]
Cc1c(C(=O)C(=O)c2ccccc2)c(C)c(C(=O)C(=O)c2ccccc2)c(C)c1C(=O)C(=O)c1ccccc1 | > 100 µM (inactive) | > 100 µM (inactive) | > 100 µM (inactive) | > 100 µM (inactive) | > 100 µM (inactive) | > 100 µM (inactive) | > 100 µM (inactive) | > 100 µM (inactive) | > 100 µM (inactive) | > 100 µM (inactive) | > 100 µM (inactive) | > 100 µM (inactive) | > 100 µM (inactive) | – | – | – | – | –
COc1ccc(Oc2nc3ccc(C(F)(F)F)cc3nc2-c2ccccc2)cc1 | 98.9 µM (inactive) | > 100 µM (inactive) | > 100 µM (inactive) | 42 µM (inactive) | > 100 µM (inactive) | > 100 µM (inactive) | > 100 µM (inactive) | – | > 100 µM (inactive) | > 100 µM (inactive) | > 100 µM (inactive) | – | 1.57 µM (inactive) | > 100 µM (inactive) | > 100 µM (inactive) | > 100 µM (inactive) | > 100 µM (inactive) | > 100 µM (inactive)
CC1CN=C(N(C(=O)Nc2ccccc2)c2ccccc2)S1 (stereo unspecified) | 23.4 µM (inactive) | 59.3 µM (inactive) | 29 µM (inactive) | 20 µM (inactive) | 39.9 µM (inactive) | 42.6 µM (inactive) | 32.7 µM (inactive) | – | 13.9 µM (inactive) | 16.7 µM (inactive) | > 100 µM (inactive) | 24.9 µM (inactive) | 38.4 µM (inactive) | 53.2 µM (inactive) | 18.8 µM (inactive) | – | 24.9 µM (inactive) | –
Cc1nn(-c2ccccc2)c2nc3ccc(Cl)cc3c(-c3ccccc3)c12 | > 100 µM (inactive) | > 100 µM (inactive) | > 100 µM (inactive) | – | > 100 µM (inactive) | > 100 µM (inactive) | > 100 µM (inactive) | > 100 µM (inactive) | > 100 µM (inactive) | > 100 µM (inactive) | > 100 µM (inactive) | > 100 µM (inactive) | > 100 µM (inactive) | > 100 µM (inactive) | > 100 µM (inactive) | > 100 µM (inactive) | > 100 µM (inactive) | > 100 µM (inactive)
O=C(Cn1c(-c2ccccc2)cc2ccccc21)N1CCCC1 | – | > 100 µM (inactive) | > 100 µM (inactive) | – | > 100 µM (inactive) | > 100 µM (inactive) | – | > 100 µM (inactive) | – | 63.2 µM (inactive) | > 100 µM (inactive) | > 100 µM (inactive) | > 100 µM (inactive) | > 100 µM (inactive) | > 100 µM (inactive) | > 100 µM (inactive) | > 100 µM (inactive) | > 100 µM (inactive)
COc1cc2c3cc1Oc1c(OC)c(OC)cc4c1C(Cc1ccc(O)c(c1)Oc1ccc(cc1)CC3N(C)CC2)CN(C)C4 (stereo unspecified) | 2.07 µM (inactive) | 10 µM (inactive) | 19 µM (inactive) | 1.11 µM (active) | 20 µM (inactive) | 20.5 µM (inactive) | 13.2 µM (inactive) | 4.1 µM (inactive) | 16.8 µM (inactive) | 13.5 µM (inactive) | 23.4 µM (inactive) | 22.1 µM (inactive) | 16.1 µM (inactive) | 17.7 µM (inactive) | – | 28.7 µM (inactive) | 15 µM (inactive) | 18.1 µM (inactive)
CCOC1OC(COC(=O)C(C)(C)C)C(O)CC1n1cc(C)c(=O)[nH]c1=O (stereo unspecified) | > 100 µM (inactive) | > 100 µM (inactive) | > 100 µM (inactive) | – | – | > 100 µM (inactive) | > 100 µM (inactive) | > 100 µM (inactive) | > 100 µM (inactive) | > 100 µM (inactive) | – | > 100 µM (inactive) | > 100 µM (inactive) | > 100 µM (inactive) | > 100 µM (inactive) | > 100 µM (inactive) | > 100 µM (inactive) | > 100 µM (inactive)
OC(CCN1CCCCC1)(c1ccccc1)c1ccccc1 [PRIDINOL] | > 100 µM (inactive) | > 100 µM (inactive) | 79.6 µM (inactive) | – | > 100 µM (inactive) | > 100 µM (inactive) | > 100 µM (inactive) | > 100 µM (inactive) | > 100 µM (inactive) | 82.8 µM (inactive) | > 100 µM (inactive) | > 100 µM (inactive) | 55.1 µM (inactive) | > 100 µM (inactive) | > 100 µM (inactive) | – | > 100 µM (inactive) | > 100 µM (inactive)
N#C/C(=C/NC(=S)Nc1ccc(S(N)(=O)=O)cc1)C(N)=O | – | > 100 µM (inactive) | > 100 µM (inactive) | 43.7 µM (inactive) | > 100 µM (inactive) | > 100 µM (inactive) | > 100 µM (inactive) | > 100 µM (inactive) | > 100 µM (inactive) | > 100 µM (inactive) | > 100 µM (inactive) | – | – | > 100 µM (inactive) | – | – | > 100 µM (inactive) | > 100 µM (inactive)
